Measurements taken from ChEMBL document CHEMBL2424512, “Discovery and biophysical characterization of 2-amino-oxadiazoles as novel antagonists of PqsR, an important regulator of Pseudomonas aeruginosa virulence” (J Med Chem, 2013).
pEC50, pKd: −log10 of the molar value. The source made the active and inactive calls. The rule behind the calls is not given here.

Legend:
[1] = molecular target: T1, Transcriptional regulator MvfR (Pseudomonas aeruginosa PA14, UniProt A0A072ZLE6); assay: Antagonist activity at Pseudomonas aeruginosa PA14 PqsR expressed in Eschericia coli DH5-alpha assessed as inhibition of PQS-induced protein activation by beta-galactosidase reporter gene assay
T1 sequence (A0A072ZLE6 whole entry): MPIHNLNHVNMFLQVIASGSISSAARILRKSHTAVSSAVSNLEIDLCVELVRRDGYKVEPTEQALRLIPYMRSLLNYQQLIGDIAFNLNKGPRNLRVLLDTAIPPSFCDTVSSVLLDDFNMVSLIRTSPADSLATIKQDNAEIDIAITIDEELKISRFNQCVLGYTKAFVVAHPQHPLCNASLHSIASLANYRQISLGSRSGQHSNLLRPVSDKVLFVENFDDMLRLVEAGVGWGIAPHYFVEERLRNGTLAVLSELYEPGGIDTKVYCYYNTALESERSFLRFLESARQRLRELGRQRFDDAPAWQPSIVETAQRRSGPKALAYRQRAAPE

[2] = molecular target: T1, Transcriptional regulator MvfR; assay: Binding affinity to Pseudomonas aeruginosa PA14 biotinylated His6SUMO-tagged PqsR expressed in Eschericia coli BL21 (lamda DE3) by isothermal titration calorimetry
[3] = molecular target: T1, Transcriptional regulator MvfR; assay: Binding affinity to Pseudomonas aeruginosa PA14 biotinylated His6SUMO-tagged PqsR expressed in Eschericia coli BL21 (DE3) by surface plasmon resonance spectroscopic analysis
[4] = molecular target: T2, Transcriptional regulator MvfR (Pseudomonas aeruginosa PA14) (UniProt A0A072ZLE6); assay: Antagonist activity at Pseudomonas aeruginosa PA14 PqsR assessed as reduction of pyocyanin level by UHPLC-MS/MS analysis
T2 sequence (whole entry): T1 sequence (A0A072ZLE6 whole entry)

[5] = molecular target: T1, Transcriptional regulator MvfR; assay: Antagonist activity at Pseudomonas aeruginosa PA14 PqsR expressed in pqs gene-deficient Pseudomonas aeruginosa PA14 by beta-galactosidase reporter gene assay
Pseudomonas aeruginosa = assay: Antibacterial activity against Pseudomonas aeruginosa PA14 at 250 uM after 1 to 8 hrs by spectrophotometer analysis; format: functional, organism-based

Compound | pEC50 [1] | pKd [2] | pKd [3] | other results
N#Cc1cccc(-c2nnc(N)o2)c1 | 4.75 |  |  | 
NC(=O)c1ccc2ccccc2c1 |  | 5.74 | 6.10 | 
Nc1cccc(Br)n1 |  | 5.00 | 5.17 | 
FC(F)(F)c1cc(-c2cccs2)n[nH]1 |  | 5.07 | 4.97 | 
CCCCCCCc1[nH]c2ccccc2c(=O)c1O |  |  | 6.68 | 
CCCCCCCc1cc(=O)c2cc(C(F)(F)F)ccc2[nH]1 |  |  |  | inhibition [4]: Active
Nc1nnc(-c2cccc(C(F)(F)F)c2)o1 | 5.12 | 5.89 |  | pEC50 [5]: 4.41; Activity (Pseudomonas aeruginosa): inactive
Nc1nnc(-c2ccc(Cl)cc2)o1 |  |  | 3.70 | 
Nc1nnc(-c2ccc(Cl)cc2)s1 |  | 5.43 | 5.35 | 
FC(F)(F)c1cccc(-c2nnco2)c1 | 3.99 | 5.19 |  | 
Nc1nnc(-c2cccc(Br)c2)o1 | 5.12 |  |  | 
CC(C)(C)c1ccc(C(=O)NO)cc1 |  |  |  | inhibition [4]: Active
Cc1cccc(-c2nnc(N)o2)c1 | 4.24 | 4.91 |  | 
CC(C)(C)c1cccc(-c2nnc(N)o2)c1 |  | 5.51 |  | 
CC(C)(C)c1ccc(C(N)=O)cc1 |  | 6.05 |  | 
Nc1nnc(-c2cccc(Cl)c2)o1 | 4.57 |  |  | 
COc1cccc(-c2nnc(N)o2)c1 |  |  |  | inhibition [4]: inactive
Nc1nnc(-c2cccc(OC(F)(F)F)c2)o1 | 4.33 |  |  | 
Cc1nnc(-c2cccc(C(F)(F)F)c2)o1 |  | 4.89 |  | 
NC(=O)c1cccc(Br)c1 |  | 5.12 | 5.17 | 
